From patent publication US8691772B2, “HSP60, HSP60 peptides and T cell vaccines for immunomodulation” (Yeda Research and Development Co. Ltd., priority 2005, dated 2014)
Ends that are not written are not given here.

Key:
SOCS3 = SOCS3 expression in human T cells (immunoblot); format: cell-based; conditions: for effect of blocker on HSP60-induced SOCS3 activation: human T cells pre-treated with blocker
HSP60 = HSP60 expression in activated T cells by western blot; format: cell-based, Lewis rats; conditions: LNC with Con A; A2b clone with peptide, 72 hr
Protocol: Western blotting. Cell lysates of resting or activated T cells were prepared by treatment for 15 minutes in the following lysis buffer: NP40 1%, NaCl 0.9%, Tris 50 mM, EDTA 1 mM, PMSF 0.4 mM, pepstatin A 4 μg/ml, leupeptin 4 μg/ml and aprotinin 4 μg/ml. The lysates were centrifuged for 15 min at 14000 rpm and the protein concentration in the supernatant was determined using a BCA protein assay kit (Pierce, Rockford, Ill., USA). The lysates were subjected to PAGE-SDS using a mini-gel apparatus (Bio-Rad Laboratories, Hercules, Calif.); 100 μg of each sample were loaded per well. Two identical gels were run each time in parallel: one gel was stained with Coomassie Brilliant Blue R-250 according to the manufacturer's protocol (Bio-Rad) and the other was electro-transferred to nitrocellulose membranes (Schleicher and Schuell, Dassel, Germany).
The nitrocellulose membranes were washed with PBS and then blocked for 1 hr with 2% bovine serum albumin (Sigma), 2.5% milk powder (Bio-Rad), Tris (Sigma) pH 7.5 10 mM, NaCl 150 mM and 0.02% thimerosal (Sigma). […] Finally, the membranes were developed using the Western Blotting Luminol Reagent (Santa Cruz Biotechnology Inc., Santa Cruz, Calif., USA), exposed to X-ray film and quantified using the NIH Image 1.63 program (National Institutes of Health, USA). Size was determined using pre-stained broad-range protein standard markers (Bio-Rad).

activated A2b T cells [1] = test: Anti-ergotypic T-cell proliferation assay; format: cell-based, Lewis rats; conditions: rats vaccinated with peptide in IFA, 26 days after AA induction; compared to Mt3
Excerpt: (§1) T-cell lines and clones T-cell lines were raised and expanded using antigen presenting cells (APC) and antigens or peptides as described (Mor et al., 1992). Three Lewis rat T-cell lines were used in our experiments: Anti-HSP60, raised against recombinant human HSP60 (human HSP60 is 97% identical to rat HSP60 at the aa level); Anti-p277, raised against the p277 peptide of human HSP60 (96% identical its rat counterpart at the aa level) and Anti-MBP, raised against guinea pig MBP. For ergotypic stimulation, the A2b T-cell clone, specific for the 180-188 epitope of HSP65 (van Eden et al., 1988) was used; similar results were obtained when other rat T-cell clones were used as targets. A2b expresses MHC-I molecules constitutively and CD80, CD86 and MHC-II molecules upon activation, and can present peptide epitopes to T cells. Activated A2b cells were used on day 3 of their stimulation, and resting A2b cells were used on day 14-16 of their rest cycle, unless stated otherwise.
DNA and peptide vaccination. The vectors containing the full-length cDNA of the human hsp60 gene (pHSP60) or the cDNA corresponding to aa 1-140 (pI) or aa 130-260 (pII) have been previously described (Quintana et al., 2002, Quintana et al., 2002b, Quintana et al., 2003, Quintana et al., 2000). […]
Anti-ergotypic T-cell proliferation assay. […] The cultures were harvested and cpm were determined using a beta counter. […]

activated A2b T cells [2] = test: Anti-ergotypic cytokine response (cytokine assays); format: cell-based, Lewis rats; conditions: rats vaccinated with peptide in IFA; response to activated A2b T cells
Excerpt: as §1
Cytokine assays. Supernatants were collected after 72 hr of stimulation with test antigens or stimulator cells. Pharmingen's OPTEIA IL-10, IL-4 and IFNγ kits (Pharmingen, San Diego, USA) and the TGFβ1 Emax® ImmunoAssay System (Promega, Madison, USA) were used to quantify cytokine release to culture supernatants, as previously described (Quintana et al., 2002b). […]

AA = conditions: DNA or peptide vaccination; Quintana et al., Ragno et al.; cited from earlier work
ConA-induced hepatitis = ConA-induced hepatitis (acute liver injury); format: in vivo, BALB/c mice
[3] = system: Mouse splenic purified T cells; test: Anti-CD3-induced T-cell proliferation; format: cell-based, C57BL/6J mice; conditions: for anti-CD3-induced T-cell proliferation: summary of Table 1
Excerpt: Purification of naïve T cells: Mouse spleen-cell suspensions were depleted of red blood cells by treatment with red blood lysis buffer (Sigma, St Louis, USA). T cells were then purified by negative selection with a T-cell isolation kit containing biotin-conjugated monoclonal antibodies to CD11b, CD45R, DX5 and Ter-119 (Miltenyi Biotec, Bergisch Gladbach, Germany). This procedure routinely yielded T cell preparations that were >95% positive for the CD3 marker as determined by FACS analysis.
Cells and medium: The T-cells cultures were set in RPMI-1640 supplemented with 5% FCS (Hyclon Logan, Utah) 100 U/ml penicillin, 100 μg/ml streptomycin, 50 μM 2β-ME, 12.5 mM hepes, 2 mM L-glutamine, 1 mM sodium pyruvate and non essential amino acids (biological industries 01-340-1 diluted 1:100).
The hamster anti-mouse anti-CD3 antibody was collected by TCA precipitation from 2C11 hybridoma supernatant. For the proliferation assay, non-tissue culture-treated polystyrene flat-bottom 96-well microtiter plates (Nunc 269787) were incubated overnight at 4° C. with 0.5-2 μg/ml anti-CD3 antibody.
(§2) T-cell proliferation: Mouse splenic purified T cells (1×10^5) were pre-incubated with the p277 analogs p277(Val^6Val^11) (SEQ ID NO:2) or p277(Ser^6Ser^11) (SEQ ID NO:3) at the indicated concentrations for 30-60 min, and transferred to anti-CD3 coated wells in triplicate or quadruplicate in 200 μl culture medium. After 72 h of incubation (37° C., 5% CO2) the cells were pulsed with 1 μCi [^3H]-thymidine for 7 h, and [^3H] thymidine incorporation was measured using a 96-well plate beta-counter. The mean cpm±Standard Error were calculated for each triplicate or quadruplicate.

[4] = system: Mouse splenic purified T cells; test: Anti-CD3-induced IFNγ secretion (ELISA); format: cell-based, C57BL/6J mice; conditions: for anti-CD3-induced IFNγ secretion: summary of Table 1
Protocol: as §2
Interferon-gamma (IFNγ) secretion to the culture media was determined by using an ELISA assay (OptiEIA kits, BD Pharmingen and Pierce Endogen) following the manufacturer's instructions. Standard curves were established using mouse recombinant cytokines. The assay detection limit was 16-32 pg/ml.

diabetes = conditions: single subcutaneous injection in mineral oil; cited from earlier work
CD4^+CD25^+ T cells = test: Co-culture of treated CD4+CD25+ T cells with CD4+CD25- T cells; format: cell-based, human; conditions: CD4+CD25+ treated with peptide 1 ng/ml, 2 hours; co-culture with untreated CD4+CD25-
[5] = i.p. 330 μl, 500 ng/ml, 18 and 1 hr prior to ConA, 24 hr after ConA

N#C/C(=C/c1ccc(O)c(O)c1)C(=O)NCc1ccccc1 [AG490, reference compound]
effect of blocker on HSP60-induced SOCS3 activation (SOCS3): abrogated the effect of HSP60on SOCS3 expression

Concanavalin A [Con A]
expression levels of HSP60 (western blot) (HSP60): triggered a similar increase in the expression levels of HSP60

EESNTFGLQLELTEG [Mt176-90]
expression levels of HSP60 (western blot) (HSP60): up-regulation of HSP60

KFGADARALMLQGVDLLADA [Hu3]
anti-ergotypic proliferative response of LNC (activated A2b T cells [1]): significantly (p<0.05) more effective in inducing an anti-ergotypic proliferative response
anti-ergotypic cytokine secretion (IFNγ, TGFβ1, IL-10, IL-4) (activated A2b T cells [2]): secreted IFNγ and TGFβ1, but not IL-10 or IL-4
inhibition of AA by vaccination (AA): can also inhibit AA

VAGGGVTLLQAAPTLDELKLEG [MTp277, reference compound]
serum level of IL-10 (ConA-induced hepatitis; 2 hr after ConA): did not seem to have a significant effect on the levels of cytokines
serum level of TNF-α (ConA-induced hepatitis; 2 hr after ConA): did not seem to have a significant effect on the levels of cytokines

VLGGGSALLRSIPALDSLTPANED [p277(Ser^6Ser^11)]
anti-CD3-induced T-cell proliferation [3]: inhibited T-cell proliferation and IFNγ secretion
Percent Inhibition of IFNγ secretion ([4]; peptide 0.1 ng/ml): 86.6% ± 11.3%
Percent Inhibition of IFNγ secretion ([4]; peptide 1 ng/ml): 86.4% ± 1.3%
Percent Inhibition of IFNγ secretion ([4]; peptide 10 ng/ml): 82.6% ± 4.75%
anti-CD3-induced IFNγ secretion [4]: inhibited T-cell proliferation and IFNγ secretion
incidence of diabetes (diabetes): did not reduce the incidence of diabetes

VLGGGVALLRVIPALDSLTPANED [p277(Val^6Val^11)]
expression of activated SOCS3 (SOCS3): induced a marked expression of activated SOCS3 in T cells
IFN-γ and TNF-α secretion, and proliferation in co-culture (CD4^+CD25^+ T cells): significantly inhibited IFN-γ and TNF-α secretion, and proliferation
serum level of IL-6 (ConA-induced hepatitis; 2 hr after ConA): increased the level of IL-6
serum level of IL-10 (ConA-induced hepatitis; 2 hr after ConA): significantly increased
serum level of TNF-α (ConA-induced hepatitis; 2 hr after ConA): significantly decreased
serum ALT (ConA-induced hepatitis; [5]): significantly inhibited ALT and AST secretion
serum AST (ConA-induced hepatitis; [5]): significantly inhibited ALT and AST secretion
Percent Inhibition of proliferation ([3]; peptide 0.1 ng/ml): 50% ± 19%
Percent Inhibition of proliferation ([3]; peptide 1 ng/ml): 73% ± 7.5%
Percent Inhibition of proliferation ([3]; peptide 10 ng/ml): 69% ± 14%
anti-CD3-induced T-cell proliferation [3]: inhibited T-cell proliferation and IFNγ secretion
Percent Inhibition of IFNγ secretion ([4]; peptide 0.1 ng/ml): 94% ± 0.81%
Percent Inhibition of IFNγ secretion ([4]; peptide 1 ng/ml): 88.9% ± 3.4%
Percent Inhibition of IFNγ secretion ([4]; peptide 10 ng/ml): 86.7% ± 8.8%
anti-CD3-induced IFNγ secretion [4]: inhibited T-cell proliferation and IFNγ secretion

pertussis toxin [reference compound]
effect of blocker on HSP60-induced SOCS3 activation (SOCS3): had no effect

polymyxin B [PMB, reference compound]
effect of blocker on LPS-induced SOCS3 activation (SOCS3; LPS 100 ng/ml): inhibited by PMB
